Test results: patent US7250304B2, “Functional assay of high-density lipoprotein” (The Regents of the University of California, priority 2000, dated 2007)

Key:
humans = assay: Infusion of apo A-I into humans, LDL isolated and tested on human artery wall cocultures; assay type: in vivo
[1] = system: human artery wall cell cocultures; assay: LDL oxidation by human artery wall cell cocultures (lipid hydroperoxides); assay type: cell-based
Protocol: The wells of the microtiter plates were treated with 0.1% gelatin at 37° C. overnight. HASMC were added at a confluent density of 1×10^5 cells/cm^2. Cells were cultured for 2 d at which time they had covered the entire surface of the well and had produced a substantial amount of extracellular matrix. HAEC were subsequently added at 2×10^5 cells/cm^2 and were allowed to grow forming a complete monolayer of confluent HAEC in 2 d. In all experiments, HAEC and autologous HASMC (from the same donor) were used at passage levels of four to six.
In general, the cocultures were treated with native LDL (250 μg/ml) in the absence or presence of HDL for 8 h. The supernatants were collected and used for determination of lipid hydroperoxide levels. The cocultures were subsequently washed and fresh culture medium 199 (M199) without any additions was added and incubated for an additional 8 hrs. This allowed the collection of monocyte chemotactic activity released by the cells as a result of stimulation by the oxidized LDL. At the end of incubation, the supernatants were collected from cocultures, diluted 40-fold, and assayed for monocyte chemotactic activity. Briefly, the supernatant was added to a standard Neuroprobe chamber (NeuroProbe, Cabin John, Md.), with monocytes added to the top. The chamber was incubated for 60 min at 37° C. After the incubation, the chamber was disassembled and the nonmigrated monocytes were wiped off. The membrane was then air dried and fixed with 1% glutaraldehyde and stained with 0.1% Crystal Violet dye. The number of migrated monocytes was determined microscopically and expressed as the mean±SD of 12 standardized high power fields counted in quadruple wells.
Statistical significance was determined by model 1 ANOVA. […] Significance is defined as p<0.05.
Human artery wall cocultures were preincubated with ETYA at a concentration of 10^−8 mol/L or with cinnamyl-3,4-dihydroxy-α-cyanocynamate (CDC, from Biomol) at a concentration of 10^−8 mol/L in M199 containing 10% LPDS for 30 min. The cocultures were then washed and LDL was added at 250 μg/ml and incubated for 8 hrs.

paraoxonase = settings: humans, six hours after the infusion vs two hours before
Protocol: After obtaining written informed consent and with IRB approval from St Bartholomew's and the Royal London School of Medicine and Dentistry, apo A-I/phosphotidylcholine discs were infused at a dose of 40 mg apo A-I /kg of body weight over four hours using the materials and protocol described by Nanjee et al (Nanjee et al. (1999) Arterioscler. Thromb. Vascul. Biol. 19: 979-989; Nanjee et al. (1996) Arteroscler. Thromb. Vascul. Biol. 16: 1203-1214) into six healthy male subjects. […] Plasma was prepared 2 hrs before and 6 hrs following the infusion, was cryopreserved as described (Havel et al. (1955) J. Clin. Invest. 43: 1345-1353) and LDL was isolated by FPLC in the authors' lab in Los Angeles before the experiments. LDL islated from plasma according to this protocol functions in a manner that is indistinguishable from freshly isolated LDL in vitro and in vivo (Rumsey et al. (1994) J. Lipid Res. 35: 1592-1598).
Paraoxonase (PON) activity was measured as previously described (Gan et al. (1991) Drug Metab. Dispos. 19: 100-106). Statistical significance was determined by model 1 ANOVA. […] Significance is defined as p<0.05.

[2] = system: fibroblasts over expressing 15-LO; assay: Removal of 13(S)-HPODE by apo A-I from fibroblasts over expressing 15-LO; assay type: cell-based; settings: apo A-I 100 μg/ml, 3 hrs
Protocol: Fibroblasts that were transfected with vector alone or cells that over expressed 15-LO were a generous gift of Drs. Joe Witztum and Peter Reaven. In the present experiments, the fibroblasts were incubated with or without 100 μg/ml apo A-I. Following 3 hrs of incubation at 37° C. with gentle mixing, the culture supernatants were removed, apo A-I was separated by FPLC and the level of hydroperoxides determined in lipid extracts of the culture supernatants and in lipid extracts of apo A-I.

LDL = assay: Removal of 13-HPODE and 15-HPETE from LDL (RP-HPLC, mass spectrometry); design: species or system human; settings: LDL 1 mg/ml with apo A-I 100 μg/ml, 2 hrs
Protocol: FIG. 6, panels A through H, illustrate the removal of 13-HPODE and 15-HPETE by apo A-I from LDL. Freshly isolated LDL (1 mg/ml) was incubated alone (LDL sham), or with apo A-I (100 μg/ml) in M199 for 2 hrs, with gentle mixing. For controls, 100 μg/ml apo A-I was incubated alone in M 199 for 2 hrs (A-I Sham, Panel A and Panel E) or 1 mg/ml freshly isolated LDL was incubated alone in M 199 for 2 hrs (LDL Sham, Panel B and Panel F) with gentle mixing at 37° C. The LDL and apo A-I were then re-isolated by centrifugation using Millipore molecular weight cut-off filters (100 kDa). Lipids were extracted from apo A-I and from LDL and were analyzed by reverse phase HPLC.
High performance reverse phase liquid chromatography (RP-HPLC) was conducted according to the methods of Ames and colleagues (Yamamoto and Ames (1987) Free Rad. Biol. Med. 3: 359-361), Kambayashi and colleagues (Kambayashi et al. (1997) J. Biochem. 121: 425-431), and Alex Sevanian (personal communication). In brief, the analyses were performed by injecting isolated lipids resuspended in mobile solvent onto the column and eluting with a flow rate of 1.0 ml/min. Detection of fatty acid oxidation products was performed by UV absorbance with a diode array detector (Beckman Instruments) scanning from 200 to 350 nm or with an evaporative light scattering detector (SEDEX 55, France). […]

Q: For “apo A-I: Human apo A-I from Sigma, major apolipoprotein of HDL; infused into humans as apo A-I/phosphatidylcholine discs”, which “resistance of human LDL to oxidation by artery wall cells after infusion” value (humans; apo A-I/phosphatidylcholine discs 40 mg apo A-I/kg over 4 hrs, six hours after vs two hours before, six out of six subjects) is on record?
A: much more resistant to oxidation

Q: What about the “time after infusion at which LDL was rendered resistant to oxidation” value (humans; humans) of the same substance?
A: ≤ 6 h

Q: And the “oxidation by artery wall cells of mouse LDL after apo A-I treatment” value ([1]; LDL from C57BL/6 and C3H/HeJ mice on chow, incubated in vitro with human apo A-I 100 μg/ml)?
A: rendered resistant to oxidation

Q: And the “protection of LDL against oxidation on co-incubation” value ([1]; apo A-I 50 μg/ml co-incubated with cocultures and LDL 250 μg/ml)?
A: did not protect the LDL against oxidation

Q: What about the “ability of pretreated artery wall cocultures to oxidize LDL” value ([1]; cocultures incubated 8 hrs with agent, agent removed before LDL 250 μg/ml) of the same substance?
A: not able to oxidize the LDL

Q: What about the “oxidation by artery wall cells of LDL pre-incubated with the agent” value ([1]; human LDL incubated with agent, re-isolated, then cocultures 8 hrs) of the same substance?
A: rendered the LDL resistant to oxidation

Q: And the “PON activity in plasma and HDL, increase” value (paraoxonase)?
A: approximately 20%

Q: And the “13-HPODE equivalents in lipid extracts of apo A-I, cells over expressing LO vs control cells” value [2]?
A: 5.1 fold

Q: And the “removal of HPODE and HPETE from freshly isolated LDL” value (LDL)?
A: effectively removed
